What was measured:
Format in all cases: functional
Cercospora beticola [1] = assay: Antifungal activity against Benzimidalzole-resistant Cercospora beticola isolate Cb-19 infected in compound-treated sugar beet seedlings at 50 ppm after 12 days
Cercospora beticola [2] = assay: Antifungal activity against Benzimidalzole-resistant Cercospora beticola isolate 18-2 infected in compound-treated sugar beet seedlings at 50 ppm after 12 days
Cercospora beticola [3] = assay: Antifungal activity against Benzimidalzole-sensitive Cercospora beticola isolate 18-1 infected in compound-treated sugar beet seedlings at 50 ppm after 12 days
Cercospora beticola [4] = assay: Antifungal activity against Benzimidalzole-resistant Cercospora beticola isolate Cb-19 infected in compound-treated sugar beet seedlings at 3.1 ppm after 12 days
Cercospora beticola [5] = assay: Antifungal activity against Benzimidalzole-resistant Cercospora beticola isolate Cb-19 infected in compound-treated sugar beet seedlings at 200 ppm after 12 days
Cercospora beticola [6] = assay: Antifungal activity against Benzimidalzole-resistant Cercospora beticola isolate Cb-19 infected in sugar beet seedlings at 200 ppm 24 hr-post inoculation
Cercospora beticola [7] = assay: Antifungal activity against Benzimidalzole-resistant Cercospora beticola isolate 20-2 infected in compound-treated sugar beet seedlings at 3.1 ppm after 12 days
Cercospora beticola [8] = assay: Antifungal activity against Benzimidalzole-resistant Cercospora beticola isolate 20-2 infected in compound-treated sugar beet seedlings at 200 ppm after 12 days
Cercospora beticola [9] = assay: Antifungal activity against Benzimidalzole-sensitive Cercospora beticola isolate 18-1 infected in compound-treated sugar beet seedlings at 12.5 ppm after 12 days
Cercospora beticola [10] = assay: Antifungal activity against Benzimidalzole-resistant Cercospora beticola isolate 20-2 infected in compound-treated sugar beet seedlings at 12.5 ppm after 12 days
Cercospora beticola [11] = assay: Antifungal activity against Benzimidalzole-resistant Cercospora beticola isolate 20-2 infected in compound-treated sugar beet seedlings at 50 ppm after 12 days
Cercospora beticola [12] = assay: Antifungal activity against Benzimidalzole-resistant Cercospora beticola isolate Cb-19 infected in sugar beet seedlings at 200 ppm applied as soil drench 3 days prior to inoculation
Cercospora beticola [13] = assay: Antifungal activity against Benzimidalzole-resistant Cercospora beticola isolate 18-2 infected in compound-treated sugar beet seedlings at 3.1 ppm after 12 days
Cercospora beticola [14] = assay: Antifungal activity against Benzimidalzole-resistant Cercospora beticola isolate Cb-19 infected in sugar beet seedlings at 50 ppm treated as foliar application 7 days prior to inoculation
Cercospora beticola [15] = assay: Antifungal activity against Benzimidalzole-resistant Cercospora beticola isolate Cb-19 infected in sugar beet seedlings at 12.5 ppm treated as foliar application 7 days prior to inoculation
Cercospora beticola [16] = assay: Antifungal activity against Benzimidalzole-sensitive Cercospora beticola isolate 18-1 infected in compound-treated sugar beet seedlings at 200 ppm after 12 days
Cercospora beticola [17] = assay: Antifungal activity against Benzimidalzole-sensitive Cercospora beticola isolate 18-1 infected in compound-treated sugar beet seedlings at 3.1 ppm after 12 days
Cercospora beticola [18] = assay: Antifungal activity against Benzimidalzole-resistant Cercospora beticola isolate 18-2 infected in compound-treated sugar beet seedlings at 12.5 ppm after 12 days
Cercospora beticola [19] = assay: Antifungal activity against Benzimidalzole-resistant Cercospora beticola isolate Cb-19 infected in sugar beet seedlings at 200 ppm treated as foliar application 7 days prior to inoculation
Cercospora beticola [20] = assay: Antifungal activity against Benzimidalzole-resistant Cercospora beticola isolate 18-2 infected in compound-treated sugar beet seedlings at 200 ppm after 12 days
Cercospora beticola [21] = assay: Antifungal activity against Benzimidalzole-resistant Cercospora beticola isolate Cb-19 infected in compound-treated sugar beet seedlings at 12.5 ppm after 12 days
Botrytis cinerea [22] = assay: Antifungal activity against Benzimidalzole-resistant Botryotinia fuckeliana isolate Bc-20 infected compound-treated kidney bean leaves at 50 ppm after 4 days
Botrytis cinerea [23] = assay: Antifungal activity against Benzimidalzole-sensitive Botryotinia fuckeliana isolate Bc-9 infected kidney bean leaves at 200 ppm treated as foliar application followed by incubation for 7 days in green house condition
Botrytis cinerea [24] = assay: Antifungal activity against Benzimidalzole-sensitive Botryotinia fuckeliana isolate Bc-9 infected kidney bean leaves at 200 ppm 24 hr post-infection measured after 3 days
Cercospora beticola [25] = assay: Antifungal activity against Benzimidalzole-sensitive Cercospora beticola isolate 18-1 infected in sugar beet seedlings at 200 ppm applied as soil drench 3 days prior to inoculation
Botrytis cinerea [26] = assay: Antifungal activity against Benzimidalzole-sensitive Botryotinia fuckeliana isolate Bc-9 infected compound-treated kidney bean leaves at 50 ppm after 4 days
Botrytis cinerea [27] = assay: Antifungal activity against Benzimidalzole-sensitive Botryotinia fuckeliana isolate Bc-9 infected compound-treated kidney bean leaves at 200 ppm after 4 days
Cercospora beticola [28] = assay: Antifungal activity against Benzimidalzole-sensitive Cercospora beticola isolate 18-1 infected in sugar beet seedlings at 200 ppm treated as foliar application 7 days prior to inoculation
Cercospora beticola [29] = assay: Antifungal activity against Benzimidalzole-sensitive Cercospora beticola isolate 18-1 infected in sugar beet seedlings at 200 ppm 24 hr-post inoculation
Cercospora beticola [30] = assay: Antifungal activity against Benzimidalzole-sensitive Cercospora beticola isolate 18-1 infected in sugar beet seedlings at 12.5 ppm 24 hr-post inoculation
Botrytis cinerea [31] = assay: Antifungal activity against Benzimidalzole-resistant Botryotinia fuckeliana isolate Bc-20 infected compound-treated kidney bean leaves at 12.5 ppm after 4 days
Cercospora beticola [32] = assay: Antifungal activity against Benzimidalzole-sensitive Cercospora beticola isolate 18-1 infected in sugar beet seedlings at 12.5 ppm treated as foliar application 7 days prior to inoculation
Botrytis cinerea [33] = assay: Antifungal activity against Benzimidalzole-resistant Botryotinia fuckeliana isolate Bc-44 infected compound-treated kidney bean leaves at 50 ppm after 4 days
Botrytis cinerea [34] = assay: Antifungal activity against Benzimidalzole-sensitive Botryotinia fuckeliana isolate Bc-9 infected kidney bean leaves at 50 ppm 24 hr post-infection measured after 3 days
Botrytis cinerea [35] = assay: Antifungal activity against Benzimidalzole-resistant Botryotinia fuckeliana isolate Bc-44 infected compound-treated kidney bean leaves at 12.5 ppm after 4 days
Cercospora beticola [36] = assay: Antifungal activity against Benzimidalzole-sensitive Cercospora beticola isolate 18-1 infected in sugar beet seedlings at 50 ppm treated as foliar application 7 days prior to inoculation
Botrytis cinerea [37] = assay: Antifungal activity against Benzimidalzole-sensitive Botryotinia fuckeliana isolate Bc-9 infected compound-treated kidney bean leaves at 12.5 ppm after 4 days
Botrytis cinerea [38] = assay: Antifungal activity against Benzimidalzole-resistant Botryotinia fuckeliana isolate Bc-20 infected compound-treated kidney bean leaves at 200 ppm after 4 days
Botrytis cinerea [39] = assay: Antifungal activity against Benzimidalzole-sensitive Botryotinia fuckeliana isolate Bc-9 infected kidney bean leaves at 12.5 ppm 24 hr post-infection measured after 3 days
Botrytis cinerea [40] = assay: Antifungal activity against Benzimidalzole-sensitive Botryotinia fuckeliana isolate Bc-9 infected kidney bean leaves at 200 ppm applied as soil drench 3 days prior to inoculation
Botrytis cinerea [41] = assay: Antifungal activity against Benzimidalzole-resistant Botryotinia fuckeliana isolate Bc-44 infected compound-treated kidney bean leaves at 200 ppm after 4 days
Cercospora beticola [42] = assay: Antifungal activity against Benzimidalzole-sensitive Cercospora beticola isolate 18-1 infected in sugar beet seedlings at 3.1 ppm 24 hr-post inoculation
Cercospora beticola [43] = assay: Antifungal activity against Benzimidalzole-sensitive Cercospora beticola isolate 18-1 infected in sugar beet seedlings at 50 ppm 24 hr-post inoculation
Botrytis cinerea [44] = assay: Antifungal activity against Benzimidalzole-resistant Botryotinia fuckeliana isolate Bc-44 infected kidney bean leaves at 50 ppm treated as foliar application followed by incubation for 7 days in green house condition
Botrytis cinerea [45] = assay: Antifungal activity against Benzimidalzole-resistant Botryotinia fuckeliana isolate Bc-44 infected kidney bean leaves at 200 ppm treated as foliar application followed by incubation for 7 days in green house condition
Botrytis cinerea [46] = assay: Antifungal activity against Benzimidalzole-resistant Botryotinia fuckeliana isolate Bc-44 infected compound-treated kidney bean leaves at 3.1 ppm after 4 days
Botrytis cinerea [47] = assay: Antifungal activity against Benzimidalzole-resistant Botryotinia fuckeliana isolate Bc-44 infected kidney bean leaves at 3.1 ppm 24 hr post-infection measured after 3 days
Botrytis cinerea [48] = assay: Antifungal activity against Benzimidalzole-resistant Botryotinia fuckeliana isolate Bc-44 infected kidney bean leaves at 200 ppm applied as soil drench 3 days prior to inoculation
Botrytis cinerea [49] = assay: Antifungal activity against Benzimidalzole-resistant Botryotinia fuckeliana isolate Bc-44 infected kidney bean leaves at 50 ppm applied as soil drench 3 days prior to inoculation
Botrytis cinerea [50] = assay: Antifungal activity against Benzimidalzole-resistant Botryotinia fuckeliana isolate Bc-44 infected kidney bean leaves at 12.5 ppm 24 hr post-infection measured after 3 days
Botrytis cinerea [51] = assay: Antifungal activity against Benzimidalzole-resistant Botryotinia fuckeliana isolate Bc-44 infected kidney bean leaves at 12.5 ppm treated as foliar application followed by incubation for 7 days in green house condition
Botrytis cinerea [52] = assay: Antifungal activity against Benzimidalzole-resistant Botryotinia fuckeliana isolate Bc-20 infected compound-treated kidney bean leaves at 3.1 ppm after 4 days
Botrytis cinerea [53] = assay: Antifungal activity against Benzimidalzole-sensitive Botryotinia fuckeliana isolate Bc-9 infected compound-treated kidney bean leaves at 3.1 ppm after 4 days
Botrytis cinerea [54] = assay: Antifungal activity against Benzimidalzole-resistant Botryotinia fuckeliana isolate Bc-44 infected kidney bean leaves at 200 ppm 24 hr post-infection measured after 3 days
Botrytis cinerea [55] = assay: Antifungal activity against Benzimidalzole-resistant Botryotinia fuckeliana isolate Bc-44 infected kidney bean leaves at 50 ppm 24 hr post-infection measured after 3 days

TRIPHENYLSTANNANOL was tested. Which Activity (Cercospora beticola [1]) did it give?
Its Activity is 100%.

And the Activity (Cercospora beticola [2])?
Its Activity is 100%.

What about the Activity (Cercospora beticola [3]) of the same compound?
Its Activity is 100%.

And the Activity (Cercospora beticola [4])?
The Activity was 60%.

What about the Activity (Cercospora beticola [5]) of the same compound?
Its Activity is 100%.

What about the Activity (Cercospora beticola [6]) of the same compound?
Its Activity is 0%.

And the Activity (Cercospora beticola [7])?
Its Activity is 69%.

And the Activity (Cercospora beticola [8])?
The Activity was 100%.

And the Activity (Cercospora beticola [9])?
Its Activity is 88%.

And the Activity (Cercospora beticola [10])?
The Activity was 94%.

And the Activity (Cercospora beticola [11])?
Its Activity is 100%.

What about the Activity (Cercospora beticola [12]) of the same compound?
The Activity was 0%.

What about the Activity (Cercospora beticola [13]) of the same compound?
Its Activity is 56%.

And the Activity (Cercospora beticola [14])?
The Activity was 90%.

And the Activity (Cercospora beticola [15])?
The Activity was 65%.

And the Activity (Cercospora beticola [16])?
The Activity was 100%.

And the Activity (Cercospora beticola [17])?
Its Activity is 75%.

And the Activity (Cercospora beticola [18])?
The Activity was 80%.

What about the Activity (Cercospora beticola [19]) of the same compound?
Its Activity is 100%.

And the Activity (Cercospora beticola [20])?
Its Activity is 100%.

And the Activity (Cercospora beticola [21])?
The Activity was 78%.

What does the source list for `COC(=O)NC(=S)Nc1ccccc1NC(=S)NC(=O)OC` [THIOPHANATE METHYL]?
Activity (Cercospora beticola [1]): 0%; Activity (Botrytis cinerea [22]): 7%; Activity (Cercospora beticola [2]): 0%; Activity (Cercospora beticola [3]): 100%; Activity (Botrytis cinerea [23]): 93%; Activity (Botrytis cinerea [24]): 84%; Activity (Cercospora beticola [25]): 64%; Activity (Botrytis cinerea [26]): 84%; Activity (Cercospora beticola [5]): 0%; Activity (Botrytis cinerea [27]): 96%; Activity (Cercospora beticola [28]): 88%; Activity (Cercospora beticola [7]): 0%; Activity (Cercospora beticola [29]): 100%; Activity (Cercospora beticola [30]): 75%; Activity (Cercospora beticola [8]): 78%; Activity (Botrytis cinerea [31]): 0%; Activity (Cercospora beticola [32]): 25%; Activity (Cercospora beticola [9]): 88%; Activity (Botrytis cinerea [33]): 0%; Activity (Cercospora beticola [10]): 12%; Activity (Cercospora beticola [11]): 56%; Activity (Botrytis cinerea [34]): 84%; Activity (Botrytis cinerea [35]): 0%; Activity (Cercospora beticola [36]): 84%; Activity (Botrytis cinerea [37]): 35%; Activity (Cercospora beticola [16]): 100%; Activity (Cercospora beticola [17]): 68%; Activity (Botrytis cinerea [38]): 17%; Activity (Botrytis cinerea [39]): 73%; Activity (Botrytis cinerea [40]): 51%; Activity (Botrytis cinerea [41]): 5%; Activity (Cercospora beticola [20]): 0%; Activity (Cercospora beticola [42]): 13%; Activity (Cercospora beticola [43]): 100%

For `C=CC1(C)OC(=O)N(c2cc(Cl)cc(Cl)c2)C1=O` (stereo unspecified) [VINCLOZOLIN], which Activity (Botrytis cinerea [22]) is on record?
Its Activity is 100%.

And the Activity (Botrytis cinerea [44])?
Its Activity is 75%.

And the Activity (Botrytis cinerea [26])?
The Activity was 100%.

What about the Activity (Botrytis cinerea [27]) of the same compound?
Its Activity is 100%.

What about the Activity (Botrytis cinerea [31]) of the same compound?
Its Activity is 82%.

And the Activity (Botrytis cinerea [45])?
The Activity was 91%.

And the Activity (Botrytis cinerea [46])?
The Activity was 21%.

What about the Activity (Botrytis cinerea [47]) of the same compound?
Its Activity is 70%.

And the Activity (Botrytis cinerea [33])?
Its Activity is 100%.

And the Activity (Botrytis cinerea [35])?
Its Activity is 77%.

What about the Activity (Botrytis cinerea [48]) of the same compound?
Its Activity is 93%.

What about the Activity (Botrytis cinerea [49]) of the same compound?
The Activity was 56%.

What about the Activity (Botrytis cinerea [37]) of the same compound?
Its Activity is 90%.

What about the Activity (Botrytis cinerea [50]) of the same compound?
Its Activity is 97%.

And the Activity (Botrytis cinerea [51])?
The Activity was 45%.

What about the Activity (Botrytis cinerea [52]) of the same compound?
The Activity was 31%.

What about the Activity (Botrytis cinerea [38]) of the same compound?
The Activity was 100%.

What about the Activity (Botrytis cinerea [53]) of the same compound?
Its Activity is 39%.

And the Activity (Botrytis cinerea [41])?
The Activity was 100%.

What about the Activity (Botrytis cinerea [54]) of the same compound?
Its Activity is 100%.

What about the Activity (Botrytis cinerea [55]) of the same compound?
The Activity was 100%.

— ChEMBL document CHEMBL3046025, “Fungitoxic Properties of N-Phenylformamidoximes in Control of Benzimidazole-Resistant Isolates of Fungi” (1992)
